Read-outs that look alike come from different tables or passages of the source.
Assays:
Assay in all cases: biochemical
Format in all cases: binding
Conditions in all cases: for Int (fluorescence emission): residual NPN fluorescence, normalized to 100 prior to ligand, screen at 2–20 μM ligand
CquiOBP1 = CquiOBP1 (Culex quinquefasciatus, UniProt Q8T6I2)
Method: (§1) Binding affinity (Ban et al., [2002]) was tested with a panel of 34 compounds, including attractants, a mosquito oviposition pheromone, repellents, terpenoids and other putative mosquito attractants or repellents. Unless otherwise specified, they were purchased from Sigma-Aldrich/Fluka/Acros (St. Louis, MO). Repellents: DEET (N,N-diethyl-3-methylbenzamide), PMD (p-mentan-3,8-diol) (Bedoukian Research, Inc.), picaridin (butan-2-yl 2-(2-hydroxyethyl)piperidine-1-carboxylate), IR3535 (ethyl 3-[acetyl(butyl)amino]propanoate) (gifts from Dr. Kamal Chauhan, USDA, ARS, Beltsville), (±)-citronellal, and ethyl 2-phenylacetate. Oviposition attractants: (5R,6S)-6-acetoxy-5-hexadecanolide, MOP (Bedoukian Research, Inc.), skatole, indole, 4-methylphenol, and 4-ethylphenol. Human derived compounds: nonanal, 6-methyl-5-hepten-2-one (sulcatone). Terpenoids and other putative attractants/repellents: linalool, linalool oxide, eucalyptol, camphor, fenchone, thujone, geranyl acetate, eugenol, (Z)-3-hexenyl acetate, 1-octen-3-ol, 1-octyn-3-ol, 3-octanol, 1-hexanol, methylcyclohexanol, methyl salicylate, cyclohexanone, acetophenone, benzaldehyde, 3,5-dimethoxybenzene, 1,2-dimethoxybenzene, and 2-phenylethanol.
(§2) Fluorescence spectra were recorded in a right angle configuration on a spectrofluorimeter (RF-5301, Shimadzu, Kyoto, Japan) at room temperature using a 1 cm light path fluorimeter quartz cuvette. Slit widths of 10 nm were selected for both excitation and emission. N-phenyl-1-naphthylamine (NPN, or 1-NPN) (Ban et al., [2002]) was dissolved in methanol to yield a 1 mM stock solution. The binding affinity for NPN was determined by adding aliquots of NPN into a 10 μg/ml (microgram) protein sample. NPN was excited at 337 nm and emission spectra were recorded at high speed scanning between 350 and 500 nm. All ligands used in competition experiments were dissolved in spectrophotometric grade methanol. Binding data were collected in three independent measurements. Bound ligand was evaluated from fluorescence intensity assuming that the protein was 100% active, with a stoichiometry of 1:1 (protein: ligand) at saturation. The KNPN values were estimated using Prism 5 (GraphPad Software, Inc., La Jolla, CA) by non-linear regression for a unique site of binding. The curves were linearized using Scatchard plots. Dissociation constants of the competitors were calculated according to Campanacci et al. ([2001]) from the corresponding IC50 values in the equation: Kdiss = [IC50]/1+[NPN]/KNPN, where [NPN] is the free concentration of NPN and KNPN is the dissociation constant of the complex protein/NPN.

CquiOBP2 = CquiOBP2 (Culex quinquefasciatus, UniProt C7BDZ6)
Method: as §1, §2

CquiOBP5 = CquiOBP5 (Culex quinquefasciatus, UniProt C7BDZ9)
Method: as §1, §2

[1] = CquiOBP1, NPN displacement titration, read-out: IC50
[2] = CquiOBP1, calculated from IC50 of NPN displacement, read-out: Kd
[3] = CquiOBP2, NPN displacement titration, read-out: IC50
[4] = CquiOBP2, calculated from IC50 of NPN displacement, read-out: Kd
[5] = CquiOBP5, NPN displacement titration, read-out: IC50
[6] = CquiOBP5, calculated from IC50 of NPN displacement, read-out: Kd

Sequence of CquiOBP1 (Q8T6I2 entry or part of it): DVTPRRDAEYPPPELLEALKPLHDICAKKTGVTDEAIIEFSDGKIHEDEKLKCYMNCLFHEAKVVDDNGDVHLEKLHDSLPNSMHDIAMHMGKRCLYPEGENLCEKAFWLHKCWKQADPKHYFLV
Sequence of CquiOBP5 (C7BDZ9 entry or part of it): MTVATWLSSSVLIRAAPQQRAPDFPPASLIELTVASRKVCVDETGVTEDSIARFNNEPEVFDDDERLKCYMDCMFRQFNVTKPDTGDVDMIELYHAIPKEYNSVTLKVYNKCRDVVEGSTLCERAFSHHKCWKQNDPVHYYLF
Sequence of CquiOBP2 (C7BDZ6 entry or part of it): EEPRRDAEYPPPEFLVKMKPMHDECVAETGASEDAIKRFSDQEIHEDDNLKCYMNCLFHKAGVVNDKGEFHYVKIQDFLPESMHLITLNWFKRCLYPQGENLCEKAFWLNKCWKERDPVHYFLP

Row | SMILES | IC50 (CquiOBP1) [µM] | Kd (CquiOBP1) [µM] | Int (fluorescence emission) (CquiOBP1; CquiOBP1) | IC50 (CquiOBP2) [µM] | Kd (CquiOBP2) [µM] | Int (fluorescence emission) (CquiOBP2; CquiOBP2) | IC50 (CquiOBP5) [µM] | Kd (CquiOBP5) [µM] | Int (fluorescence emission) (CquiOBP5; CquiOBP5) | IC50 (CquiOBP1; [1]) [µM] | Kd (CquiOBP1; [2]) [µM] | binding to CquiOBP1 (in words) (CquiOBP1; in vitro, NPN displacement) | IC50 (CquiOBP2; [3]) [µM] | Kd (CquiOBP2; [4]) [µM] | binding to CquiOBP2 (in words) (CquiOBP2; in vitro, NPN displacement) | IC50 (CquiOBP5; [5]) [µM] | Kd (CquiOBP5; [6]) [µM] | binding to CquiOBP5 (in words) (CquiOBP5; in vitro, NPN displacement)
1 | CCOC(=O)Cc1ccccc1 [Ethyl 2-phenylacetate, ethyl 2-phenylacetate] | > 10 | > 6.3 | 92 | > 10 | > 2.5 | 87 | > 10 | > 7 | 91 |  |  |  |  |  |  |  |  | 
2 | CC(C)[C@]12CC(=O)[C@H](C)[C@H]1C2 [Thujone, thujone] | > 10 | > 6.3 | 96 | > 10 | > 2.5 | 87 | > 10 | > 7 | 90 |  |  |  |  |  |  |  |  | 
3 | Cc1c[nH]c2ccccc12 [Skatole, skatole] |  |  | 75 |  |  | 31 |  |  | 62 | > 10 | > 6.3 | does not bind | 5.6 | 1.4 | bind | 14.4 | 10.1 | bind
4 | CC(=O)OC/C=C(\C)CCC=C(C)C [Geranyl acetate, geranyl acetate] |  |  | 94 |  |  | 90 |  |  | 81 | > 10 | > 6.3 |  | > 10 | > 2.5 |  | > 10 | > 7 | 
5 | CCCCN(CCC(=O)OCC)C(C)=O [IR3535, ethyl 3-[acetyl(butyl)amino]propanoate] |  |  | 71 |  |  | 90 |  |  | 67 | > 10 | > 6.3 |  | > 10 | > 2.5 |  | > 10 | > 7 | 
6 | C=CCc1ccc(O)c(OC)c1 [Eugenol, eugenol] |  |  | 72 |  |  | 82 |  |  | 57.5 | > 10 | > 6.3 |  | > 10 | > 2.5 |  | 10.7 | 7.4 | 
7 | C=CC(C)(O)CCC=C(C)C (stereo not drawn) [Linalool, linalool] |  |  | 91 |  |  | 97 |  |  | 86 | > 10 | > 6.3 |  | > 10 | > 2.5 |  | > 10 | > 7 | 
8 | C=CC(O)CCCCC (stereo not drawn) [1-Octen-3-ol, 1-octen-3-ol] |  |  | 69 |  |  | 93 |  |  | 59 | > 10 | > 6.3 |  | > 10 | > 2.5 |  | 11.6 | 8.1 | 
9 | O=C1CCCCC1 [Cyclohexanone, cyclohexanone] |  |  | 79 |  |  | 86 |  |  | 82 | > 10 | > 6.3 |  | > 10 | > 2.5 |  | > 10 | > 7 | 
10 | CC1CCC(C(C)(C)O)C(O)C1 (stereo not drawn) [PMD, p-mentan-3,8-diol] |  |  | 80 |  |  | 35 |  |  | 61 | > 10 | > 6.3 |  | 5.3 | 1.3 |  | 13.8 | 9.6 | 
11 | C=CC1(C)CCC(C(C)(C)O)O1 (stereo not drawn) [Linalool oxide, linalool oxide] |  |  | 92 |  |  | 95 |  |  | 94 | > 10 | > 6.3 |  | > 10 | > 2.5 |  | > 10 | > 7 | 
12 | C#CC(O)CCCCC (stereo not drawn) [1-Octyn-3-ol, 1-octyn-3-ol] |  |  | 66 |  |  | 92 |  |  | 62.2 | > 10 | > 6.3 |  | > 10 | > 2.5 |  | 12.8 | 8.9 | 
13 | CC(=O)c1ccccc1 [Acetophenone, acetophenone] |  |  | 88 |  |  | 92 |  |  | 87 | > 10 | > 6.3 |  | > 10 | > 2.5 |  | > 10 | > 7 | 
14 | CCCCCCO [1-Hexanol, 1-hexanol] |  |  | 85 |  |  | 89 |  |  | 88 | > 10 | > 6.3 |  | > 10 | > 2.5 |  | > 10 | > 7 | 
15 | CCc1ccc(O)cc1 [4-Ethylphenol, 4-ethylphenol] |  |  | 85 |  |  | 91 |  |  | 84 | > 10 | > 6.3 |  | > 10 | > 2.5 |  | > 10 | > 7 | 
16 | CC12CCC(CC1)C(C)(C)O2 [Eucalyptol, eucalyptol] |  |  | 96 |  |  | 90 |  |  | 73 | > 10 | > 6.3 |  | > 10 | > 2.5 |  | > 10 | > 7 | 
17 | CC12CCC(C1)C(C)(C)C2=O (stereo not drawn) [Fenchone, fenchone] |  |  | 89 |  |  | 87 |  |  | 92 | > 10 | > 6.3 |  | > 10 | > 2.5 |  | > 10 | > 7 | 
